Drawing on US20240254089A1, “MODULATORS OF MAS-RELATED G-PROTEIN RECEPTOR X4 AND RELATED PRODUCTS AND METHODS” (ESCIENT PHARMACEUTICALS, INC., priority 2020, published 2024), this text covers IC50 for 71 molecules.

Some results are limits rather than exact numbers.

T1 sequence (Q96LA9 whole entry): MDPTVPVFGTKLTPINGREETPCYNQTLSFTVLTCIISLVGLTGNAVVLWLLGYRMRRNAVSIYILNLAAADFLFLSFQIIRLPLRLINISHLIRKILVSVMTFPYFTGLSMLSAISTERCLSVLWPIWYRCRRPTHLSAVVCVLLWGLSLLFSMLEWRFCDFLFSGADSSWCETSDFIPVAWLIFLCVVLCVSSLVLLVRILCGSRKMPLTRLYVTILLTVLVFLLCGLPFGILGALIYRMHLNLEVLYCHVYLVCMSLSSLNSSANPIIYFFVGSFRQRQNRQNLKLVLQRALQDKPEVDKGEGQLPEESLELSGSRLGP

The first test has as its target T1, human MRGPR X4 (Homo sapiens, UniProt Q96LA9).
T1 construct: expressed in transfected cells
Briefly: MRGPR X4 antagonist activity, IP-One Gq HTRF assay in stably transfected HEK cells. Format: cell-based.
Conditions: not given
The gist of the method:
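Human MRGPR X4-expressing HEK cells, 20,000/well, were incubated with compound (10-point curve, 10 uM top, 1:3 dilutions) plus agonist (10 μM bilirubin, 20 μM deoxycholic acid or 100 μM conjugated bilirubin) in Tris/NaCl/LiCl buffer, pH 8, for 1 h at 37 °C, then 30 min at room temperature. IP-1 was read by HTRF, and IC50 was taken from the HTRF ratio.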
In general terms: Time-resolved FRET reads energy transfer from a long-lived donor to a nearby acceptor.
`O=C(NCCc1ccc(Cl)c(F)c1)c1cn(Cc2ccc(F)cc2)c2ccccc12` [Compound 198] came in with an IC50 of 501 to 1000 nM.

Regarding `O=C(NCCc1cccc(F)c1)c1cn(Cc2cccc(F)c2)c2ccccc12` [Compound 199], the IC50 was in the range of 501 to 1000 nM.

In turn, `O=C(NCCc1cccc(OC(F)(F)F)c1)c1cn(Cc2ccc(Cl)cc2)c2ccccc12` [Compound 200] displayed an IC50 of 1000 to 2500 nM.

The molecule `Cc1cccc(Cn2cc(C(=O)NCCc3cccnc3)c3ccccc32)c1` [Compound 201] registered an IC50 of 1000 to 2500 nM.

The molecule `Cc1ccc(CCNC(=O)c2cn(Cc3cccc(F)c3)c3ccccc23)cn1` [Compound 202] registered an IC50 of 1000 to 2500 nM.

`COc1ncccc1CCNC(=O)c1cn(Cc2cccc(F)c2)c2ccccc12` [Compound 203]: the IC50 lay in the range of 1000 to 2500 nM.

For `O=C(NCCCc1ccc(Cl)c(F)c1)c1cn(Cc2ccc(Cl)cc2)c2ccccc12` [Compound 204], the IC50 is 1000 to 2500 nM.

The molecule `O=C(NCCc1ccc(Cl)c(F)c1)c1cn(Cc2ccc(Cl)cc2)c2ccccc12` [Compound 205] displayed an IC50 of 1000 to 2500 nM.

`O=C(NCCc1cccc(C(F)(F)F)c1)c1cn(Cc2ccc(Cl)cc2)c2ccccc12` [Compound 206] came in with an IC50 of 1000 to 2500 nM.

Consider `Cc1cnc(CCNC(=O)c2cn(Cc3ccc(Cl)cc3)c3ccccc23)nc1` [Compound 207], for which the IC50 is 1000 to 2500 nM.

In turn, `O=C(NCCc1ccc(C(F)(F)F)cc1)c1cn(Cc2ccc(Cl)cc2)c2ccccc12` [Compound 208] returned an IC50 of 1000 to 2500 nM.

In the case of `O=C(NCCc1ccc(Cl)c(F)c1)c1cn(Cc2ccc(C(F)(F)F)cc2)c2ccccc12` [Compound 209], the IC50 was in the range of 1000 to 2500 nM.

Consider `O=C(NCCc1ccc(Cl)c(F)c1)c1cn(Cc2cccc(F)c2)c2ccccc12` [Compound 210], for which the IC50 fell in the range of 1000 to 2500 nM.

With `COc1cccc(Cn2cc(C(=O)NCCc3cccnc3)c3ccccc32)c1` [Compound 211], the IC50 fell in the range of 1000 to 2500 nM.

`Cc1ncccc1CCNC(=O)c1cn(Cc2cccc(F)c2)c2ccccc12` [Compound 212] came in with an IC50 of 1000 to 2500 nM.

For `CC(C)(CNC(=O)c1cn(Cc2cccc(F)c2)c2ccccc12)c1cccnc1` [Compound 213], the IC50 fell in the range of 1000 to 2500 nM.

`O=C(NCCc1ccccn1)c1cn(Cc2cccc(F)c2)c2ccccc12` [Compound 214]: the IC50 was in the range of 1000 to 2500 nM.

In turn, `O=C(NCCc1cncnc1)c1cn(Cc2ccc(Cl)cc2)c2ccccc12` [Compound 215] gave an IC50 of 1000 to 2500 nM.

The molecule `COc1ccc(CCNC(=O)c2cn(Cc3cccc(F)c3)c3ccccc23)cn1` [Compound 216] showed an IC50 of 1000 to 2500 nM.

As to `COc1ccc(Cn2cc(C(=O)NCCc3ccc(Cl)c(F)c3)c3ccccc32)cc1` [Compound 218], the IC50 was 1000 to 2500 nM.

Molecule `O=C(NCCc1ccncc1)c1cn(Cc2cccc(F)c2)c2ccccc12` [Compound 219] registered an IC50 of 1000 to 2500 nM.

For `O=C(NCCc1ccc(=O)[nH]c1)c1cn(Cc2ccc(Cl)cc2)c2ccccc12` [Compound 220], the IC50 fell in the range of 1000 to 2500 nM.

For the molecule `COc1ccccc1CCNC(=O)c1cn(Cc2cccc(F)c2)c2ccccc12` [Compound 221], the IC50 was 1000 to 2500 nM.

On to `Cc1cccc(Cn2cc(C(=O)NCCc3ccc(Cl)c(F)c3)c3ccccc32)c1` [Compound 222], for which the IC50 fell in the range of 1000 to 2500 nM.

Regarding `O=C(NCCc1ccc(Cl)c(F)c1)c1cn(CCN2CCC(F)(F)CC2)c2ccccc12` [Compound 223], the IC50 was 1000 to 2500 nM.

In turn, `O=C(NCCc1ccc(Cl)c(F)c1)c1cn(Cc2ccccc2F)c2ccccc12` [Compound 224] returned an IC50 greater than 2500 nM.

Consider `Cc1ccccc1Cn1cc(C(=O)NCCc2cccnc2)c2ccccc21` [Compound 225], for which the IC50 is greater than 2500 nM.

`COc1ccccc1Cn1cc(C(=O)NCCc2cccnc2)c2ccccc21` [Compound 226] showed an IC50 greater than 2500 nM.

`Cc1c(C(=O)NCCc2cccnc2)c2ccccc2n1Cc1ccc(Cl)cc1` [Compound 227]: the IC50 is greater than 2500 nM.

In turn, `COC1CN(CCn2cc(C(=O)NCCc3ccccn3)c3ccccc32)C1` [Compound 228] had an IC50 greater than 2500 nM.

Molecule `Cc1ccc(Cn2cc(C(=O)NCc3ccccn3)c3ccccc32)cc1` [Compound 229] yielded an IC50 greater than 2500 nM.

In turn, `Cc1ccc(Cn2cc(C(=O)NCc3ccncc3)c3ccccc32)cc1` [Compound 231] returned an IC50 greater than 2500 nM.

In the case of `CC(=O)c1cccc(Cn2cc(C(=O)NCCc3cccnc3)c3ccccc32)c1` [Compound 232], the IC50 was greater than 2500 nM.

Regarding `CC(C)(CNC(=O)c1cn(Cc2ccc(Cl)cc2)c2ccccc12)c1cccnc1` [Compound 233], the IC50 is greater than 2500 nM.

On to `O=C(NCCc1ccccn1)c1cn(Cc2ccccc2)c2ccccc12` [Compound 234], for which the IC50 was greater than 2500 nM.

The molecule `N#Cc1ccccc1Cn1cc(C(=O)NCCc2ccc(Cl)c(F)c2)c2ccccc21` [Compound 235] had an IC50 greater than 2500 nM.

The molecule `O=C(NCCc1ccc(F)cc1)c1cn(Cc2cccc(F)c2)c2ccccc12` [Compound 236] gave an IC50 greater than 2500 nM.

With `Cc1ccccc1S(=O)(=O)NC(=O)c1nn(Cc2ccc(OC(F)F)cc2)c2ccccc12` [Compound 258], the IC50 was in the range of 100 to 500 nM.

In the case of `O=C(NS(=O)(=O)c1ccc(Cl)cc1Cl)c1nn(Cc2cccc(F)c2)c2ccccc12` [Compound 261], the IC50 lay in the range of 501 to 1000 nM.

With `O=C(NS(=O)(=O)c1ccc(F)cc1)c1nn(Cc2ccc(OC(F)F)cc2)c2ccccc12` [Compound 266], the IC50 fell in the range of 501 to 1000 nM.

Still in this test, the particulars now being: versus 20 μM deoxycholic acid agonist; HEK cells expressing human MRGPR X4; read-out: MRGPRX4 Antagonist Activity.
Consider `O=C(NCCc1ccccn1)c1cn(CCc2ccc(Cl)cc2)c2ccccc12` [Compound 217], for which the IC50 lay in the range of 1000 to 2500 nM.

Consider `O=C(NCC1(c2cccnc2)CC1)c1cn(Cc2ccc(Cl)cc2)c2ccccc12` [Compound 230], for which the IC50 is greater than 2500 nM.

On to `O=C(CS(=O)(=O)c1cn(Cc2ccc(Cl)cc2)c2ccccc12)Nc1ccccc1F` [Compound 237, 2-((1-(4-chlorobenzyl)-1H-indol-3-yl)sulfonyl)-N-(2-fluorophenyl)acetamide], for which the IC50 lay within 100 to 500 nM.

As for `COc1cccc(NC(=O)CS(=O)(=O)c2cn(Cc3ccc(Cl)cc3)c3ccccc23)c1` [Compound 238], the IC50 fell in the range of 100 to 500 nM.

Take `O=C(CS(=O)(=O)c1cn(Cc2ccc(Cl)cc2)c2ccccc12)Nc1cccnc1` [Compound 239]: the IC50 was in the range of 100 to 500 nM.

In the case of `O=C(CS(=O)(=O)c1cn(Cc2ccc(Cl)cc2)c2ccccc12)Nc1cccc(F)c1` [Compound 240], the IC50 was 100 to 500 nM.

Regarding `O=C(CS(=O)(=O)c1cn(Cc2ccc(Cl)cc2)c2ccccc12)Nc1ccccn1` [Compound 241], the IC50 lay within 100 to 500 nM.

As to `O=C(CS(=O)(=O)c1cn(Cc2ccc(Cl)cc2)c2ccccc12)Nc1ccccc1` [Compound 242], the IC50 was in the range of 501 to 1000 nM.

For `Cc1cccc(NC(=O)CS(=O)(=O)c2cn(Cc3ccc(Cl)cc3)c3ccccc23)c1` [Compound 243], the IC50 was in the range of 501 to 1000 nM.

Regarding `O=C(CS(=O)(=O)c1cn(Cc2ccc(Cl)cc2)c2ccccc12)Nc1ccccc1Cl` [Compound 244], the IC50 fell in the range of 501 to 1000 nM.

For the molecule `O=C(CS(=O)(=O)c1cn(Cc2ccc(Cl)cc2)c2ccccc12)Nc1ccc(F)cc1` [Compound 245], the IC50 is 501 to 1000 nM.

Turning to `COc1ccccc1NC(=O)CS(=O)(=O)c1cn(Cc2ccc(Cl)cc2)c2ccccc12` [Compound 246], the IC50 is 1000 to 2500 nM.

Consider `Cc1ccc(NC(=O)CS(=O)(=O)c2cn(Cc3ccc(Cl)cc3)c3ccccc23)cc1` [Compound 247], for which the IC50 is 1000 to 2500 nM.

Regarding `CC(C)NC(=O)CS(=O)(=O)c1cn(Cc2ccc(Cl)cc2)c2ccccc12` [Compound 248], the IC50 fell in the range of 1000 to 2500 nM.

Take `O=C(CS(=O)(=O)c1cn(Cc2ccc(Cl)cc2)c2ccccc12)Nc1ccc(Cl)c(Cl)c1` [Compound 249]: the IC50 lay within 1000 to 2500 nM.

`CNC(=O)CS(=O)(=O)c1cn(Cc2ccc(Cl)cc2)c2ccccc12` [Compound 250]: the IC50 is 1000 to 2500 nM.

For the molecule `O=C(CS(=O)(=O)c1cn(Cc2ccc(Cl)cc2)c2ccccc12)Nc1ccc(Cl)cc1Cl` [Compound 251], the IC50 lay within 1000 to 2500 nM.

As for `CN(C)C(=O)CS(=O)(=O)c1cn(Cc2ccc(Cl)cc2)c2ccccc12` [Compound 252], the IC50 was in the range of 1000 to 2500 nM.

For `O=C(CS(=O)(=O)c1cn(Cc2ccc(Cl)cc2)c2ccccc12)Nc1cccc(Cl)c1` [Compound 253], the IC50 fell in the range of 1000 to 2500 nM.

Take `Cc1cccc(NC(=O)CS(=O)(=O)c2cn(CCN3CCC(F)(F)C3)c3ccccc23)c1` [Compound 254]: the IC50 was in the range of 1000 to 2500 nM.

As for `Cc1ccccc1NC(=O)CS(=O)(=O)c1cn(Cc2ccc(Cl)cc2)c2ccccc12` [Compound 255], the IC50 was greater than 2500 nM.

As for `O=C(CS(=O)(=O)c1cn(Cc2ccc(Cl)cc2)c2ccccc12)Nc1ccc(Cl)cc1` [Compound 256], the IC50 was greater than 2500 nM.

Regarding `COc1ccc(C)c(S(=O)(=O)NC(=O)c2nn(Cc3cccc(F)c3)c3ccccc23)c1` [Compound 257], the IC50 was greater than 2500 nM.

As to `Cc1cc(S(=O)(=O)NC(=O)c2nn(Cc3ccc(OC(F)F)cc3)c3ccccc23)ccc1C#N` [Compound 259], the IC50 fell in the range of 100 to 500 nM.

For `Cc1cccc(S(=O)(=O)NC(=O)c2nn(Cc3ccccc3C#N)c3ccccc23)c1` [Compound 260], the IC50 lay in the range of 501 to 1000 nM.

For the molecule `O=C(NS(=O)(=O)c1ccccc1C(F)(F)F)c1nn(Cc2ccc(OC(F)F)cc2)c2ccccc12` [Compound 262], the IC50 fell in the range of 501 to 1000 nM.

`Cc1cc(S(=O)(=O)NC(=O)c2nn(Cc3ccc(C(F)(F)F)cc3Cl)c3ccccc23)ccc1C#N` [Compound 263]: the IC50 was in the range of 501 to 1000 nM.

Regarding `Cc1ccc(CS(=O)(=O)NC(=O)c2nn(Cc3ccc(Cl)cc3)c3ccccc23)cc1` [Compound 264], the IC50 lay in the range of 501 to 1000 nM.

With `O=C(NS(=O)(=O)c1cccc(C(F)(F)F)c1)c1nn(Cc2ccc(OC(F)F)cc2)c2ccccc12` [Compound 265], the IC50 fell in the range of 501 to 1000 nM.

For `O=C(NS(=O)(=O)c1cccc(F)c1)c1nn(Cc2ccc(OC(F)F)cc2)c2ccccc12` [Compound 267], the IC50 is 501 to 1000 nM.

Consider `Cc1cc(C)cc(S(=O)(=O)NC(=O)c2nn(Cc3ccc(OC(F)F)cc3)c3ccccc23)c1` [Compound 268], for which the IC50 was 501 to 1000 nM.
